Biological target: T1, rTdLTP2 (Triticum turgidum, UniProt A0A446PDN1)
T1 construct: gene LTP2; mature protein expressed from pPICZalphaA in Pichia pastoris, non-tagged, gel filtration and RP-HPLC
Test: hydrophobic ELISA plate coated with lipid, anti-LTP detection, one-site fit
Assay type: binding
From the text: hydrophobic ELISA plate coated with lipid, anti-LTP detection, one-site fit on rTdLTP2 | high kd values specifically for oleic, palmitic acids and for sterol (Fig 5B and 5C) | rTdLTP2 can bind a wide range of lipids as oleic, linoleic, stearic, and palmitic acids

T1 sequence (A0A446PDN1 entry or part of it): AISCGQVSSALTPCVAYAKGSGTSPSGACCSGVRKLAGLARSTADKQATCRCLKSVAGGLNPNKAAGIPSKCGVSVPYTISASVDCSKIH

Kd	Structure (SMILES)
300 nM	CCCCCCCC/C=C\CCCCCCCC(=O)O [oleic acid]
590 nM	CCCCC/C=C\C/C=C\CCCCCCCC(=O)O [linoleic acid]

Continued, molecule first:

Structure (SMILES)	Kd
CCCCCCCCCCCCCCCCCC(=O)O [stearic acid]	470 nM
CC[C@H](CC[C@@H](C)[C@H]1CC[C@H]2[C@@H]3CC=C4C[C@@H](O)CC[C@]4(C)[C@H]3CC[C@]12C)C(C)C [B-sitosterol]	300 nM
CCCCCCCCCCCCCCCC(=O)O [Palmitic acid]	310 nM

Source: paper PMC9007336, “Identification and molecular characterization of a novel non-specific lipid transfer protein (TdLTP2) from durum wheat” (PLoS ONE, 2022)
